Data reported in US7408079B2, “Imaging agents and methods of imaging NAALADase or PSMA” (The Johns Hopkins University, priority 2002, dated 2008).

Assays:
[1] = biological target: T1, GCP II (Mus musculus, UniProt O35409); experiment: Binding specificity: blocking of ^11C-MCG kidney uptake by pretreatment with blocker; assay type: in vivo, mice; conditions: for reduction in ^11C-MCG uptake: mouse kidney, pretreatment 5 minutes prior with unlabeled MCG (up to 1 mg/kg) or PMPA (1 mg/kg), sacrifice 30 minutes
T1 construct: from tissue; host or cells: kidney of live male CD-1 mice
T1 sequence (O35409 whole entry): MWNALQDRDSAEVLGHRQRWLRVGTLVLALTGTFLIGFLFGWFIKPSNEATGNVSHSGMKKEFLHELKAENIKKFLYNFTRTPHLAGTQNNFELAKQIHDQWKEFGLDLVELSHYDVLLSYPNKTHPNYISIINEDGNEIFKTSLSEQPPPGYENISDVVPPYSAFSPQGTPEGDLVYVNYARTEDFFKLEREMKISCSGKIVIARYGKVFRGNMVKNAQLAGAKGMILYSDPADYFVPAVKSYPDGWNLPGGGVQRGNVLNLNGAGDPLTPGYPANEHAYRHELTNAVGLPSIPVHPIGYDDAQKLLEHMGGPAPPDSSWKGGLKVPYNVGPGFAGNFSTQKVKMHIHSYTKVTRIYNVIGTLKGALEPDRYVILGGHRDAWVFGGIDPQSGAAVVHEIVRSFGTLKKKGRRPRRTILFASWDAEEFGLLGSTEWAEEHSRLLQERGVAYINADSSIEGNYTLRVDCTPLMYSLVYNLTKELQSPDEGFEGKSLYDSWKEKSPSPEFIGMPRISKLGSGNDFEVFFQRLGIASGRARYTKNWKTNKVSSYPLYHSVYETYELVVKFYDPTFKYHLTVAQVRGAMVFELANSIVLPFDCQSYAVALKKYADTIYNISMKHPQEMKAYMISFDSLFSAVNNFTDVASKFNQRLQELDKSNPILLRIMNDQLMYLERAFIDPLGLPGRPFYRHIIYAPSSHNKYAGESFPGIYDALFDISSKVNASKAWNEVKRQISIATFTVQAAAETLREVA
Description: ANOVA, which was used in rodent radiotracer uptake studies, was performed with StatView SE Graphic software, version 1.03 (SAS Institute, Cary, N.C.). For the Students t test, p<0.01 was considered to indicate statistical significance.

[2] = test system: GCP II; experiment: Baboon PET study of renal cortical uptake with tracer kinetic modeling; assay type: in vivo, baboon (Papio anubis)
Description: (§1) A dynamic PET study of the renal cortical uptake and clearance of ^11C-MCG was performed in an adult male baboon (Papio anubis; body weight, approximately 30 kg). Before each study, two intraveneous catheters and a single arterial catheter were placed for infusion of anesthesia, injection of radiotracer and sampling of arterial blood, respectively. The animal was initially anestitized intramuscurally with 8-10 mg/kg alfadolone and alfaxalone acetate (Saffan; Pitman-Moore, Middlesex, UK) and was intubated. Anesthesia was maintained throughout the study by a continuous intravenous infusion drip of 6-9 mg/kg/h of Saffan. The animal was secured to the PET bed using an individually fitted thermoplastic mask. Pulse, blood pressure, and oxygen saturation were monitored continuously during the studies. Blood oxygen saturation was always maintained above 85%. After the animal was positioned in the PET scanner, transmission scanning was performed with a 370 MBq (10 mCi) ^68Ga source to allow for attenuation correction. PET scanning was started immediately after intravenous injection of 370 MBq (10 mCi) of high-specific-acitivtiy ^11C-MCG (corresponding, at a maximum, to 0.02 μg/kg). Thirty-five simultaneous, contiguous (18 directed planes, 17 cross planes, z-axis 14.45 cm), sequential quantitative tomographic slices fo […] were obtained with a GE Advance PET tomograph (General Electric Medical Systems, Milwaukee, Wis.) in the high-resolution mode (4.25-5.00 mm ful width at half maximum within the slice) over a 90 minute period. The animal was positioned so that the renal cortex was in the filed of view. Approximately 30 arterial blood samples (for radioassay and protein binding) were obtained over 90 minutes. […]
A one-tissue, three parameter (K1=influx, k2 efflux, DV=distribution volume) model was applied to the TACs and to the metabolite-corrected renal uptake curves to describe tracer kinetics with DV (=K1/k2 in ml/ml) used as anindex of receptor density. The effect of blocking with PMPA was evaluated by changes in the Dva nd calculated as 100×(DVbaseline−DVblocker)/DVbaseline. […]

[3] = Metabolism of ^11C-MCG in baboon arterial plasma; assay type: in vivo, baboon (Papio anubis)
Description: as §1, with “PET scanning was started immediately after intravenous injection of 370 MBq (10 mCi) of high-specific-acitivtiy ^11C-MCG (corresponding, at a maximum, to 0.02 μg/kg).” left out, “period.” for “period. The animal was positioned so that the renal cortex was in the filed of view. Approximately 30 arterial blood samples (for radioassay and protein binding) were obtained over 90 minutes.”

[4] = Metabolism studies of ^11C-MCG in mice (blood and kidney, HPLC); conditions: mice in vivo, n=2
Description: At different times after injection of ^11C-MCG into mice, blood and kidneys were collected to determine the rate of metabolism of the radiotracer. Heparinized blood (0.2-0.3 mL) was diluted to 0.9 mL with cold 0.9% saline and acidified to 0.5 N by the rapid addition of 0.1 mL of 5 N perchloric acid. Following 5 minutes on ice, the precipitate was removed by centrifugation to yield an acid-soluble supernatant that was analyzed by HPLC. Similarly, an acid extract of mouse kidney was obtained from an initial homogenate of two kidneys in 0.8 mL of cold water.
The acid extracts were loaded onto a 4.6×250 mm Prodigy ODS-3 column (Phenomenex) eluted with 10% acetonitrile in 50 mM sodium phosphate buffer pH 2.5 at a flow rate of 2 mL/min. Radioactivity was measured by a dual BGO flow detector and the chromatograph analyzed by Laura software (Bioscan, Washington, D.C.). ^11C-MCG eluted after 4.0 minutes with a minor, earlier eluting product at 2.5 minutes.

[5] = in vivo
Description: Male CD-1 mice (Charles River, Wilmington, Mass.) weighing between 20 and 25 g were used and received an injection of 3.7 MBq (100 μCi) of ^11C-MCG through the tail vein. That amounted to, at a maximum, 0.27 μg/kg. For kinetic studies, mice were killed by cervical dislocation at 5, 15, 30, 60, and 120 min after injection fo the radiotracer in 200 μL of saline vehicle. The brains were removed and placed on ice, and the cerebellum, olfactory bulb, hypothalamus, hippocampus, striatum, parietal cortex, brainstem, and thalamus were harvested. Kidneys, blood, fat, muscle, small intestine, and prostate were also harvested. The tissue samples were weighted, and their radioactivity content was determined in an automated γ counter (1282 Compugamma CS: Pharmacia/LKB Nuclear, Gaithersburg Md.). Aliquots of the injected tracer were counted along with the samples and served as standards for the calculation of percentage injected dose per gram of tissue (% ID/g). To assess binding specificity, groups of three mice each were pretreated with the high affinity GCP II inhibitor PMPA at does of 1, 10 and 100 mg/kg in 200 μL of saline vehicle 5 minutes prior to ^11C-MCG injection. In an additional binding specificity study, animals were pretreated similarly with unlabeled MCG standard at doses of 5, 50, 100, 500, and 1000 μg/kg before ^11C-MCG injection

[6] = LogP (hydrophilicity); assay type: physicochemical

Structure (SMILES)	decreasing ^11C-MCG uptake in mouse kidney (FIG. 1) ([1]; increasing concentration of unlabeled MCG blocker, up to)	reduction in ^11C-MCG uptake [1]	reduction in the DV of ^11C-MCG ([2]; baboon renal cortex, pretreatment with 3 mg/kg PMPA) [%]	peak metabolism ([3]; baseline, 90 minutes after injection) [%]	peak metabolism ([3]; blocker (2 mg/kg PMPA) 10 minutes prior to tracer, 90 minutes post injection) [%]	metabolism in kidney ([4]; 30 minute time point) [%]	metabolism in plasma ([4]; 30 minute time point) [%]	metabolism in plasma ([4]; 60 minutes)	metabolism in kidney ([4]; at most over 5-60 minutes) [%]	Kidney/blood ratio ([5]; male, CD-1, mouse, 30 min)	Prostate uptake ([5]; male, CD-1, mouse, 30 min) [% ID/G]	kidney/muscle ratio ([5]; male, CD-1, mouse, 30 min)	uptake in brainstem ([5]; male, CD-1, mouse, 30 min) [% ID/g]	uptake in cerebellum ([5]; male, CD-1, mouse, 30 min) [% ID/g]	uptake in cortex ([5]; male, CD-1, mouse, 30 min) [% ID/g]	uptake in hippocampus ([5]; male, CD-1, mouse, 30 min) [% ID/g]	Brain uptake ([5]; mouse)	DV (distribution volume) ([2]; baboon renal cortex, after pretreatment with 3 mg/kg PMPA) [mL/mL]	DV (distribution volume) ([2]; male, baboon (Papio anubis), in vivo) [mL/mL]	logP [6]
CSCC(NC(=O)NC(CCC(=O)O)C(=O)O)C(=O)O (stereo not drawn) [MCG]	approximately seven fold	approximately sixfold																		
O=C(O)CCC(CP(=O)(O)O)C(=O)O (stereo not drawn) [PMPA, reference compound]		approximately sixfold	37																	
[11CH3]SC[C@H](NC(=O)N[C@@H](CCC(=O)O)C(=O)O)C(=O)O [^11C-MCG, 2-[3-(1-Carboxy-2-^11C-methylsulfanyl-ethyl)-ureido]-pentanedioic acid]				9.0	4.0	2.0	3.5	at most 9.2%	≤ 10.4	30	1.55±1.01	73	0.12±0.03	< 0.1	< 0.1	< 0.1	low	0.878	1.38	-0.235
